From patent US9790169B2, “IDO inhibitors” (BRISTOL-MYERS SQUIBB COMPANY, priority 2015, dated 2017)

target: human IDO1 (Homo sapiens, UniProt P14902); assay: Assessment of human IDO-1 inhibitory activity in HEK cells (human IDO1/HEK293 cells, kynurenine read-out with Ehrlich reagent, absorbance 490 nm); format: cell-based; design: expressed in transfected cells; details: HEK Human IDO-1 cellular assay
Protocol: Exemplary compounds were tested for inhibition of IDO activity.
Assessment of Human IDO-1 Inhibitory Activity in HEK Cells
HEK293 cells were transfected with a pCDNA-based mammalian expression vector harboring human IDO1 cDNA (NM 002164.2) by electroporation. They were cultured in medium (DMEM with 10% FBS) containing 1 mg/ml G418 for two weeks. Clones of HEK293 cells that stably expressed human IDO1 protein were selected and expanded for IDO inhibition assay.
The human IDO1/HEK293 cells were seeded at 10,000 cells per 50 μL per well with RPMI/phenol red free media contains 10% FBS in a 384-well black wall clear bottom tissue culture plate (Matrix Technologies LLC) 100 nL of certain concentration of compound was then added to each well using ECHO liquid handling systems. The cells were incubated for 20 hours in 37° C. incubator with 5% CO2.
The compound treatments were stopped by adding trichloroacetic acid (Sigma-Aldrich) to a final concentration at 0.2%. The cell plate was further incubated at 50° C. for 30 minute. The equal volume supernatant (20 μL) and 0.2% (w/v) Ehrlich reagent (4-dimethylaminobenzaldehyde, Sigma-Aldrich) in glacial acetic acid were mixed in a new clear bottom 384-well plate. This plate was then incubated at room temperature for 30 minute. The absorbance at 490 nm was measured on Envision plate reader.
Compound IC50 values were calculated using the counts of 500 nM of a reference standard treatment as one hundred percent inhibition, and counts of no compound but DMSO treatment as zero percent inhibition.

Chain of human IDO1 (P14902 whole entry): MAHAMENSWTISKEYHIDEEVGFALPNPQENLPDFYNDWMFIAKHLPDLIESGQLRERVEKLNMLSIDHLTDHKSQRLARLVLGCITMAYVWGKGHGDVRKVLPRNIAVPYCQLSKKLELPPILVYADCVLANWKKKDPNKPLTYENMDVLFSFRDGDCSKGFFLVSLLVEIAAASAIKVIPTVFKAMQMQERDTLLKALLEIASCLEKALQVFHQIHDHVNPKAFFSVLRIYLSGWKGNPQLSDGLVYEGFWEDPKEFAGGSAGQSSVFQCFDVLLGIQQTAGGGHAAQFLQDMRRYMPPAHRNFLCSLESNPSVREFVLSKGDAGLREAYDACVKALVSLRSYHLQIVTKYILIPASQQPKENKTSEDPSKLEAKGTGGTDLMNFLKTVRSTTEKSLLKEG

SMILES	IC50 [nM]
CC[C@H](CC(=O)O)c1ccc(N(CC)C2CCOCC2)c(Nc2cnc(OC)nc2)c1 (single isomer, unassigned) [Example 519]	< 5
CCC(CC(=O)O)c1cc(F)c(N(CC(C)C)CC(C)C)c(Nc2ccc(C#N)cc2)c1 (single isomer, unassigned) [Example 107, 3-(3-((4-cyanophenyl)amino)-4-(diisobutylamino)-5-fluorophenyl)pentanoic acid]	< 5
CCC(CC(=O)O)c1ccc(N2CCC[C@@H]2C(C)(C)O)c(Nc2ccc(Cl)cc2)c1 (single isomer, unassigned) [Example 783]	< 5
CC(C)C(CC(=O)O)c1ccc(N(C)C(C)(C)C)c(Nc2nc3ccccc3o2)c1 (single isomer, unassigned) [1008-1]	> 50
CCN(c1ccc(C(C)CC(=O)O)cc1Nc1ccc2c(c1)OC(F)(F)O2)C1CCOCC1 (single isomer, unassigned) [Example 616, 3-(3-((2,2-difluorobenzo[d] [1,3]dioxol-5-yl)amino)-4-(ethyl(tetrahydro-2H-pyran-4-yl)amino)phenyl)butanoic acid]	< 5
CCN(c1ccc([C@@H](COC)CC(=O)O)cc1Nc1ccc(Cl)cc1)C1CCOCC1 (single isomer, unassigned) [Example 376]	< 5
COCC(CC(=O)O)c1ccc(N(CC2CC2)C2CCOCC2)c(Nc2ccc3nc(C)sc3c2)c1 (single isomer, unassigned) [Example 689, 3-(4-((cyclopropylmethyl) (tetrahydro-2H-pyran-4-yl)amino)-3-((2-methylbenzo[d]thiazol-6-yl)amino)phenyl)-4-methoxybutanoic acid]	> 50
CCOc1ccc(NC(=O)Nc2cc(C(CC)CC(=O)O)c(F)cc2N(CC(C)C)CC(C)C)cc1 (racemic) [Example 1131, (±)-3-(4-(Diisobutylamino)-5-(3-(4-ethoxyphenyl)ureido)-2-fluorophenyl)pentanoic acid]	< 5
COCC(CC(=O)O)c1ccc(N(CC(C)C)C2CCOCC2)c(NC(=O)Nc2ccc(OC(F)(F)F)cc2)c1 (single isomer, unassigned) [Example 1211, 3-(4-(Isobutyl(tetrahydro-2H-pyran-4-yl)amino)-3-(3-(4-(trifluoromethoxy)phenyl)ureido)phenyl)-4-methoxybutanoic acid]	> 50
CC[C@@H](CC(=O)O)c1ccc(N2CCOC[C@@H]2C(C)C)c(Nc2ccc3c(c2)OC(F)(F)O3)c1 (single isomer, unassigned) [Example 81]	< 50
CCOc1ncc(Nc2cc([C@@H](CC)CC(=O)O)ccc2N(CC(C)(C)O)C2CCOCC2)cn1 (single isomer, unassigned) [Example 197]	> 50
CCOc1ccc(Nc2cc([C@@H](CC)CC(=O)O)ccc2N2CCOC[C@@H]2C(C)C)cc1 (single isomer, unassigned) [Example 82]	< 50
CCOc1ccc(Nc2cc(C(C)CC(=O)O)ccc2N(CC(C)(C)O)C2CCCCC2)c(F)c1 (single isomer, unassigned) [Example 52, 3-(4-(cyclohexyl(2-hydroxy-2-methylpropyl)amino)-3-((4-ethoxy-2-fluorophenyl)amino)phenyl)butanoic acid]	> 50
CCC(CC(=O)O)c1ccc(N(CC(C)C)C2CCCCC2)c(Nc2cnc(OC(C)C)nc2)c1 (single isomer, unassigned) [Example 648, 3-(4-(cyclohexyl(isobutyl)amino)-3-((2-isopropoxypyrimidin-5-yl)amino)phenyl)pentanoic acid]	< 5
CC[C@@H](CC(=O)O)c1ccc(N(CC)C2CCOCC2)c(Nc2cnc(OC)nc2)c1 (single isomer, unassigned) [Example 479]	< 5
CC[C@H](CC(=O)O)c1ccc(N(CC(C)(C)O)C2CCCCC2)c(Nc2ccc(OC(F)F)cc2)c1 (single isomer, unassigned) [Example 237]	< 5
CCC(CC(=O)O)c1cc(F)c(N(CC(C)C)CC(C)C)c(NC(=O)Cc2ccc(F)cc2F)c1 (single isomer, unassigned) [Example 1093 E1]	< 5
CCOc1ccc(C(=O)Nc2cc(C(CC)CC(=O)O)ccc2N(CC(C)C)C2CCCCC2)cc1 (racemic) [Example 1073, 3-(4-(Cyclohexyl(isobutyl)amino)-3-(4-ethoxybenzamido)phenyl)pentanoic acid]	> 50
Cc1nc2ccc(Nc3cc(C(C)(C)CC(=O)O)ccc3N(CC(C)C)CC(C)C)cc2s1 [Example 146, 3-(4-(diisobutylamino)-3-((2-methylbenzo[d]thiazol-6-yl)amino)phenyl)-3-methylbutanoic acid]	> 50

SMILES	IC50 [nM]
CC[C@H](CC(=O)O)c1ccc(N2CCOC[C@@H]2C(C)C)c(Nc2ccc3c(c2)OC(F)(F)O3)c1 (single isomer, unassigned) [Example 93]	< 50
COCC(CC(=O)O)c1ccc(N(CC(C)C)C2CCCCC2)c(NC(=O)Nc2cc(C)on2)c1 (racemic) [Example 986, (+/−)-3-(4-(Cyclohexyl(isobutyl)amino)-3-(3-(5-methylisoxazol-3-yl)ureido)phenyl)-4-methoxybutanoic acid]	< 50
CCC(CC(=O)O)c1cc(F)c(N(CC(C)C)CC(C)C)c(Nc2ccnc(N3CCOCC3)n2)c1 (single isomer, unassigned) [Example 105, 3-(4-(diisobutylamino)-3-fluoro-5-((2-morpholinopyrimidin-4-yl)amino)phenyl) pentanoic acid]	> 50
CCC(CC(=O)O)c1ccc(N2CCC[C@H]2C(C)(C)F)c(Nc2ccc3nc(C)sc3c2)c1 (single isomer, unassigned) [Example 789]	> 50
CC[C@H](CC(=O)O)c1ccc(N(CC)C2CCOCC2)c(Nc2ccc(OC)nc2)c1 (single isomer, unassigned) [Example 518]	< 5
CCC(CC(=O)O)c1ccc(N(CC)C2CCCOC2)c(NC(=O)Nc2ccc(C)cc2)c1 (single isomer, unassigned) [Example 73 D3, 3-(4-(Ethyl(tetrahydro-2H-pyran-3-yl)amino)-3-(3-(p-tolyl)ureido)phenyl)pentanoic acid]	< 50
CCC(CC(=O)O)c1cc(F)c(N(CC(C)C)CC(C)C)c(NC(=O)Nc2ccc(C)c(F)c2)c1 (racemic) [Example 974, (+/−)-3-(4-(diisobutylamino)-3-fluoro-5-(3-(3-fluoro-4-methylphenyl)ureido)phenyl)pentanoic acid]	< 50
CC[C@@H](CC(=O)O)c1ccc(N2CCC[C@@H]2C(C)(C)O)c(Nc2ccc(C#N)cc2)c1 (single isomer, unassigned) [Example 771]	< 50
CC(C)CN(c1ccc(C(CC(=O)O)C2CC2)cc1NC(=O)Nc1cncnc1)C1CCOCC1 (single isomer, unassigned) [Example 1207 Enantiomer 1, 3-Cyclopropyl-3-(4-(isobutyl(tetrahydro-2H-pyran-4-yl)amino)-3-(3-(pyrimidin-5-yl)ureido)phenyl)propanoic acid]	> 50
CCOc1ccc(NC(=O)Nc2cc(C(COC)CC(=O)O)ccc2N(CC(C)C)C2CCOCC2)cc1 (single isomer, unassigned) [Example 1212, 3-(3-(3-(4-Ethoxyphenyl)ureido)-4-(isobutyl(tetrahydro-2H-pyran-4-yl)amino)phenyl)-4-methoxybutanoic acid]	> 50
CC[C@@H](CC(=O)O)c1ccc(N(CC)C2CCOCC2)c(Nc2ccc3c(c2)OCCO3)c1 (single isomer, unassigned) [Example 486]	> 50
COCC(CC(=O)O)c1ccc(N(CC2CC2)C2CCOCC2)c(Nc2ccc(C#N)cc2)c1 (single isomer, unassigned) [Example 687, 3-(3-((4-cyanophenyl)amino)-4-((cyclopropylmethyl) (tetrahydro-2H-pyran-4-yl)amino)phenyl)-4-methoxybutanoic acid]	< 50
CCC(CC(=O)O)c1ccc(N(CC(C)C)CC(C)(C)O)c(Nc2ccc3nc(C)sc3c2)c1 (racemic) [Example 452, 3-(4-((2-Hydroxy-2-methylpropyl)(isobutyl)amino)-3-((2-methylbenzo[d]thiazol-6-yl)amino)phenyl)pentanoic acid]	> 50
CCc1ccc(Nc2cc([C@H](CC)CC(=O)O)ccc2N(CC(C)(C)O)C2CCCCC2)cc1 (single isomer, unassigned) [Example 239]	< 50
CCN(c1ccc([C@H](COC)CC(=O)O)cc1NC(=O)Nc1ccc(Cl)cc1F)C1CCOCC1 (single isomer, unassigned) [Example 434]	< 50
CC[C@@H](CC(=O)O)c1ccc(N(CC(C)(C)O)C2CCOCC2)c(Nc2ccc(Cl)c(OCC(F)(F)F)c2)c1 (single isomer, unassigned) [Example 200]	< 50
COCC(CC(=O)O)c1ccc(N(CC(C)C)CC(C)C)c(NC(=O)Nc2cc(C)on2)c1 (single isomer, unassigned) [999-1]	< 50
CCCN(CC1CC1)c1ccc(C(CC)CC(=O)O)cc1Nc1cnc(OCC)nc1 (single isomer, unassigned) [Example 657, 3-(4-((cyclopropylmethyl) (propyl)amino)-3-((2-ethoxypyrimidin-5-yl)amino)phenyl)pentanoic acid]	< 50
